Data reported in US20260132123A1, “ABAD INHIBITOR COMPOUNDS” (UNIVERSITY COURT OF THE UNIVERSITY OF ST ANDREWS, priority 2021, published 2026).

Experiments:
17β-HSD10 = biological target: T1, 17β-HSD10 (Homo sapiens, UniProt Q99714); experiment: 17β-HSD10 (ABAD) enzyme inhibition assay, NADH oxidation read at 340 nm (primary screen and dose response); type: biochemical; conditions: for EC50 / Max. Effect (%) / Hill Slope / Max. Fit / Min. Fit: recombinant 17βHSD10 enzyme assay; for Hill Slope / Max. Fit / Min. Fit: curve fit
T1 construct: Histev (histidine tag with TEV site) (N, cleaved yes); made in house; host or cells: E. coli BL21-CodonPlus
T1 sequence (Q99714 1-261): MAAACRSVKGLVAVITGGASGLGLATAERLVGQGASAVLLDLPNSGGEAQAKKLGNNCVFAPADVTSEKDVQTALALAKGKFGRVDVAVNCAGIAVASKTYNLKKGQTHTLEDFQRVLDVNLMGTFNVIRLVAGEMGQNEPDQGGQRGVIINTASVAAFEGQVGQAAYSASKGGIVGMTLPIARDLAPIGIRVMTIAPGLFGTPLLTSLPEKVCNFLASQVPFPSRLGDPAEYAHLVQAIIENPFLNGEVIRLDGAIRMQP
Method in brief: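 Screening used a 35 min room-temperature endpoint A340 read after compound (10 μM) and enzyme (2.5 nM, E. coli-expressed, His-tag removed) preincubated 15 min, then 100 μM NADH plus acetoacetyl-CoA added. Dose-response runs tracked absorbance kinetically 45 min; buffer pH 7.4 Tris with BSA, DTT.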

mtsABAD HEK293 cells [1] = experiment: Alamar Blue cell viability assay; type: cell-based, human; conditions: 50 μM compound
Experimental: Cell viability was assessed via fluorescence change using the commercially available Alamar Blue from ThermoFisher. HEK293 cells overexpressing mts17β-HSD10 were cultured in phenol-red free media (10% FBS, 1 mM sodium pyruvate, 100 units penicillin, 0.1 mg/mL streptomycin and 2 mM L-glutamine) and seeded at a density of 10,000 cells per well (100 μL, 96 well plates). […] Treated cells were then incubated at 37° C. and CO2 (5%) for 24 hours before the assay was performed as per the manufacturer's instructions. Fluorescence was measured at 530 nm excitation and 590 nm emission using a SpectraMaxM2e spectrophotometer.

mtsABAD HEK293 cells [2] = experiment: Lactate dehydrogenase (LDH) cytotoxicity assay; type: cell-based, human; conditions: 50 μM compound
Experimental: Cell cytotoxicity was assessed via the measurement of lactate dehydrogenase leakage into the culture medium using a commercially available kit from Pierce (Thermo Scientific cat no. 88953). This was carried out in accordance with the kit guidelines, with the activity of Lactate Dehydrogenase (LDH) being calculated from the change in absorbance at […] as NADH is reduced. HEK293 cells overexpressing mts17β-HSD10 were cultured in phenol-red free media (10% fetal bovine serum (FBS), 1 mM sodium pyruvate, 100 units penicillin, 0.1 mg/mL streptomycin and 2 mM L-glutamine) and seeded at a density of 10,000 cells per well (100 μL, 96 well plates). […] Treated cells were incubated at 37° C. and CO2 (5%) for 24 hours before the LDH assay was performed as per the manufacturer's instructions. Spontaneous control (water) and maximum control (lysis buffer) used in accordance with the kit guide. Absorbance was measured at 490 nm and 680 nm using a SpectraMaxM2e spectrophotometer. The measured LDH activity was used to calculate % cytotoxicity using the following equation: […]

| Structure (SMILES) | EC50 (17β-HSD10) [µM] | Max. Effect (%) (17β-HSD10) | Alamar Blue % Viability (50 μM Dose) (mtsABAD HEK293 cells [1]) [%] | LDH % Toxicity (50 μM Dose) (mtsABAD HEK293 cells [2]) [%] | Hill Slope (17β-HSD10) | Max. Fit (17β-HSD10) | Min. Fit (17β-HSD10) | 17β-HSD10 / ABAD activity in words (SAR discussion) (17β-HSD10) | fold less potent than ESC1002033 (17β-HSD10) | Alamar Blue % Viability (50 μM Dose) (mtsABAD HEK293 cells [1]; listed as ESC1002203-01) [%] | LDH % Toxicity (50 μM Dose) (mtsABAD HEK293 cells [2]; listed as ESC1002203-01) [%] | Alamar Blue % Viability (50 μM Dose) (mtsABAD HEK293 cells [1]; listed as ESC1002205-01) [%] | LDH % Toxicity (50 μM Dose) (mtsABAD HEK293 cells [2]; listed as ESC1002205-01) [%] | Alamar Blue % Viability (50 μM Dose) (mtsABAD HEK293 cells [1]; listed as ESC1002206-01) [%] | LDH % Toxicity (50 μM Dose) (mtsABAD HEK293 cells [2]; listed as ESC1002206-01) [%] |
| --- | --- | --- | --- | --- | --- | --- | --- | --- | --- | --- | --- | --- | --- | --- | --- |
| CC(=O)N(CC(C)C)c1cccc(N(C)Cc2cnc[nH]2)c1 [ESC1002171, N-[3-[1H-imidazol-5-ylmethyl(methyl)amino]phenyl]-N-isobutyl-acetamide] | > 20 | 34 | 86.843 | 5.933 |  |  |  |  |  |  |  |  |  |  |  |
| CC(C)CN(C(=O)c1cccc2ccccc12)c1cccc(N(C)Cc2cnc[nH]2)c1 [ESC1002172, N-[3-[1H-imidazol-5-ylmethyl(methyl)amino]phenyl]-N-isobutyl-naphthalene-1-carboxamide] | 2.82 | 87 | 85.337 | 5.472 | 1.1 | 96 | 0 |  |  |  |  |  |  |  |  |
| COc1ccc(C(=O)N(CC(C)C)c2cccc(N(C)Cc3cnc[nH]3)c2)cc1 [ESC1002182, N-[3-[1H-imidazol-5-ylmethyl(methyl)amino]phenyl]-N-isobutyl-4-methoxy-benzamide] | 0.331 | 99 | 87.643 | 4.733 | 0.8 | 103 | 0 |  |  |  |  |  |  |  |  |
| CC(C)CN(C(=O)c1ccc(Cl)cc1)c1cccc(N(C)Cc2cnc[nH]2)c1 [ESC1002183, 4-chloro-N-[3-[1H-imidazol-5-ylmethyl(methyl)amino]phenyl]-N-isobutyl-benzamide] | 0.776 | 95 | 89.373 | 5.082 | 1.2 | 97 | 0 |  |  |  |  |  |  |  |  |
| CC(C)CN(C(=O)c1ccccc1F)c1cccc(N(C)Cc2cncn2C)c1 [ESC1002199] | > 20 | 13 | 89.524 | 5.028 |  |  |  |  |  |  |  |  |  |  |  |
| CC(C)CN(C(=O)c1ccccc1F)c1cccc(N(C)Cc2cn(C)cn2)c1 [ESC1002200] | 9.12 | 67 | 79.220 | 5.136 | 1 | 96 | 0 |  |  |  |  |  |  |  |  |
| CC(C)CN(C(=O)c1ccccc1F)c1cccc(N(C)Cc2ncc[nH]2)c1 [ESC1002201] | > 20 | 41 | 80.481 | 5.842 |  |  |  |  |  |  |  |  |  |  |  |
| CC(C)CN(C(=O)c1ccccc1F)c1cccc(N(C)Cc2nccn2C)c1 [ESC1002202] | 10 | 57 | 81.531 | 2.542 | 1.3 | 79 | 0 |  |  |  |  |  |  |  |  |
| Cc1ncc(CN(C)c2cccc(N(CC(C)C)C(=O)c3ccccc3F)c2)[nH]1 [ESC1002203] | 0.525 | 97 |  |  | 1.1 | 98 | 0 | only slightly reduced ABAD inhibition levels | approximately 3 fold | 87.491 | 6.638 |  |  |  |  |
| CC(C)CN(C(=O)c1ccccc1F)c1cccc(N(C)Cc2ccn[nH]2)c1 [ESC1002205] |  | 96 |  |  | 1.1 | 97 | 0 |  |  |  |  | 95.933 | 5.840 |  |  |
| CC(C)CN(C(=O)c1ccccc1F)c1cccc(N(C)Cc2ccn[nH]2)c1 [ESC1002206] |  | 79 |  |  | 0.93 | 107 | 0 |  |  |  |  |  |  | 95.609 | 5.918 |
| CC(C)CN(C(=O)c1ccccc1F)c1cccc(N(C)Cc2cncs2)c1 [ESC1002208] | > 20 | 50 | 65.577 | 20.084 |  |  |  |  |  |  |  |  |  |  |  |
| CC(C)CN(C(=O)c1ccccc1F)c1cccc(N(C)Cc2ccccn2)c1 [ESC1002209] | 5.75 | 80 | 80.514 | 5.698 | 0.98 | 104 | 0 |  |  |  |  |  |  |  |  |
| CC(C)CN(C(=O)c1ccccc1F)c1cccc(N(C)Cc2cccnc2)c1 [ESC1002210] | 6.17 | 72 | 93.200 | 5.509 | 1.4 | 82 | 0 |  |  |  |  |  |  |  |  |
| CC(C)CN(C(=O)c1ccccc1F)c1cccc(N(C)Cc2ccncc2)c1 [ESC1002211] | > 20 | 40 | 82.553 | 5.501 |  |  |  |  |  |  |  |  |  |  |  |
| CC(C)CN(C(=O)c1ccccc1F)c1cccc(N(C)Cc2ccc(O)nc2)c1 [ESC1002212] | > 20 | 16 | 94.278 | 5.576 |  |  |  |  |  |  |  |  |  |  |  |
| CCc1ccc(CN(C)c2cccc(N(CC(C)C)C(=O)c3ccccc3F)c2)cn1 [ESC1002213] | > 20 | 15 | 81.860 | 8.010 |  |  |  |  |  |  |  |  |  |  |  |
| CC(C)CN(C(=O)c1ccccc1F)c1cccc(N(C)Cc2cn3ccccc3n2)c1 [ESC1002214] | > 20 | 22 | 82.439 | 5.902 |  |  |  |  |  |  |  |  |  |  |  |
| CCN(C(=O)c1ccccc1F)c1cccc(N(C)Cc2cnc[nH]2)c1 [ESC1002234, N-ethyl-2-fluoro-N-[3-[1H-imidazol-5-ylmethyl(methyl)amino]phenyl]benzamide] | 1.48 | 94 | 86.98 | 4.81 | 0.96 | 101 | −3 |  |  |  |  |  |  |  |  |
| CCCC(=O)N(CC(C)C)c1cccc(N(C)Cc2cnc[nH]2)c1 [ESC1002235, N-[3-[1H-imidazol-5-ylmethyl(methyl)amino]phenyl]-N-isobutyl-butanamide] | 2.95 | 85 | 84.09 | 5.54 | 1.1 | 93 | −3 |  |  |  |  |  |  |  |  |
| CC(C)CN(C(=O)c1ccccc1F)c1ccc2c(c1)N(Cc1cnc[nH]1)CCC2 [ESC1002236, 2-fluoro-N-[1-(1H-imidazol-5-ylmethyl)-3,4-dihydro-2H-quinolin-7-yl]-N-isobutyl-benzamide] | > 20 | 30 | 82.69 | 3.94 |  |  |  |  |  |  |  |  |  |  |  |
| CN(Cc1c[nH]cn1)c1cccc(N(CC2CCC2)C(=O)c2ccccc2F)c1 [ESC1002265] | 0.955 | 96 | 80.52 | 4.52 | 1.1 | 99 | 0 |  |  |  |  |  |  |  |  |
| COCCN(C(=O)c1ccccc1F)c1cccc(N(C)Cc2c[nH]cn2)c1 [ESC1002266, 2-fluoro-N-[3-[1H-imidazol-4-ylmethyl(methyl)amino]phenyl]-N-(2-methoxyethyl)benzamide] | 6.46 | 74 | 89.86 | 5.22 | 0.98 | 100 | −4 |  |  |  |  |  |  |  |  |
| CC(C)OCCN(C(=O)c1ccccc1F)c1cccc(N(C)Cc2c[nH]cn2)c1 [ESC1002267] | 6.03 | 76 | 89.57 | 4.81 | 0.9 | 103 | −4 |  |  |  |  |  |  |  |  |
